# Where two headings read alike, the source gives them in different places.
# Experiments:
# ABCA1 gene = assay: Quantitative analysis of ABCA1 gene regulation in THP-1 cells (real-time PCR); format: cell-based, human; settings: for EC50: read-out: EC50 ABCA1; for Emax: LXR agonist reference at 1.0 uM as positive control, read-out: Agonism ABCA1
# Procedure: III. Quantitative Analysis of ABCA1 Gene Regulation in THP-1 Cells. The compounds of formula (I) effect on the regulation of the ABCA1 gene was evaluated using the following procedure. Materials and Methods Cell culture: The THP-1 monocytic cell line (ATCC #TIB-202) was obtained from American Type Culture Collection (Manassas, Va.) and cultured in RPMI 1640 medium (Gibco, Carlsbad, Calif.) containing 10% FBS, 2 mM L-glutamine, and 55 uM beta-Mercaptoethanol (BME). […] Louis, Mo.) for three days to induce differentiation into adherent macrophages. Differentiated THP-1 cells were treated with test compounds or ligands dissolved in DMSO (Sigma, D-8779) in culture medium lacking phorbal ester. […] Dose response effects were measured in duplicate, in the range of 0.001 to 30 micromolar concentrations and treated cells were incubated for an additional 18 hrs prior to RNA isolation. Unstimulated cells treated with vehicle were included as negative controls on each plate. […] L., J. Med. Chem. (2000), 45:1963-1966.). Results of antagonist analysis are expressed as % antagonism and IC50 (in μM). RNA isolation and quantitation: Total cellular RNA was isolated from treated cells cultured in 96-well plates using PrepStation 6100 (Applied Biosystems, Foster City, Calif.), according to the manufacturer's recommendations. RNA was resuspended in ribonuclease-free water and stored at -70° C. prior to analysis. RNA concentrations were quantitated with RiboGreen test procedure, #R-11490 (Molecular Probes, Eugene, Oreg.). Gene expression analysis: Gene-specific mRNA quantitation was performed by real-time PCR with the Perkin Elmer Corp. chemistry on an ABI Prism 7700 Sequence detection system (Applied Biosystems, Foster City, Calif.) according to the manufacturer's instructions. Samples (50-100 ng) of total RNA were assayed in duplicate or triplicate in 50 ul reactions using one-step RT-PCR and the standard curve method to estimate specific mRNA concentrations. Sequences of gene-specific primer and probe sets were designed with Primer Express Software (Applied Biosystems, Foster City, Calif.). […] Relative levels of ABCA1 mRNA are normalized using GAPDH mRNA or 18S rRNA probe/primer sets purchased commercially (Applied Biosystems, Foster City, Calif.). Statistics: Mean, standard deviation and statistical significance of duplicate evaluations of RNA samples were assessed using ANOVA, one-way analysis of variance using SAS analysis. Reagents: -GAPDH Probe and Primers-Taqman GAPDH Control Reagents 402869 or 4310884E 18S Ribosomal RNA-Taqman 18S Control Reagents 4308329 […] Qiagen Quantitect probe RT-PCR 204443.
# human LXRβ = molecular target: T1, human LXRβ (Homo sapiens, UniProt P55055); assay: Ligand-binding test procedure for human LXRβ (3H T0901317 tracer, flash plates); settings: biotinylated hLXRβ from E. coli extract; tracer 3H T0901317
# T1 construct: biotin (biotinylated); made in house; host or cells: E. coli (crude extract)
# T1 sequence (P55055 1-460): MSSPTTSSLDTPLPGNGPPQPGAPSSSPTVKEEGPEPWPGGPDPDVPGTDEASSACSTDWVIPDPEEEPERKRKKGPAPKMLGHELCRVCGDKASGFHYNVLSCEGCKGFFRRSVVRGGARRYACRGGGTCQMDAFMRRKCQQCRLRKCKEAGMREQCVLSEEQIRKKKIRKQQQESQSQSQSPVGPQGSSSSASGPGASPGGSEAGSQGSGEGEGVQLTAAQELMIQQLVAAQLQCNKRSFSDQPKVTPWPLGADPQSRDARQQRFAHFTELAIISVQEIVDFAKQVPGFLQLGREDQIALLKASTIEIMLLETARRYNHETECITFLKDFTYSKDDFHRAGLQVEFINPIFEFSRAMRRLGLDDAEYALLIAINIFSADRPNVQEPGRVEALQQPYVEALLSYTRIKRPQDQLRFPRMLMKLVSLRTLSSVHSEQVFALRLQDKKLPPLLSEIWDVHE
# Procedure, shortened: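 Biotinylated hLXRβ from E. coli extract was captured on streptavidin flash plates (Bmax ~4000 cpm) at 4 °C overnight. Test ligand dilutions were mixed with 5 nM [3H]T0901317 tracer solution and incubated on the plates overnight at 4 °C; bound radioactivity was counted after washing.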
# human LXRα = molecular target: T2, human LXRα (Homo sapiens, UniProt Q13133); assay: Ligand-binding test procedure for human LXRα (3H T0901317 tracer, flash plates); settings: biotinylated hLXRα from E. coli extract; tracer 3H T0901317
# T2 construct: biotin (biotinylated); made in house; host or cells: E. coli (crude extract)
# T2 sequence (Q13133 1-447): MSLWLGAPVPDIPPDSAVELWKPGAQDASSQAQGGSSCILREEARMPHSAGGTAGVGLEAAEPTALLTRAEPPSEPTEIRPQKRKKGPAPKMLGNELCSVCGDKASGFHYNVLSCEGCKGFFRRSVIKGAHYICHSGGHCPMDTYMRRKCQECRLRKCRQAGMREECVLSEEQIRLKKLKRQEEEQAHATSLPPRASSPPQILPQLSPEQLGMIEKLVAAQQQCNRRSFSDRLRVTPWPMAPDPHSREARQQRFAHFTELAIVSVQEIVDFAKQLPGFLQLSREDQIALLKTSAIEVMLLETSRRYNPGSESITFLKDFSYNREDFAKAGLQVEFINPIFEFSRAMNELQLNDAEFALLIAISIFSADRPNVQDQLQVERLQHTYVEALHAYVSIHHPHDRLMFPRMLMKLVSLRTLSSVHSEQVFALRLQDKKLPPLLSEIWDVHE
# Procedure, shortened: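 Biotinylated hLXRα from E. coli extract (50 mM Tris) captured on streptavidin flash plates overnight at 4 °C. Compound dilution series mixed with 5 nM [3H]T0901317 (concentration before mixing), incubated overnight at 4 °C; wells aspirated, washed and remaining radioactivity counted.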
# [1] = Gene regulation by LXR (Human), differentiated THP-1 cells, 18 hrs, ABCA1 mRNA
# [2] = Gene regulation by LXR (Human), differentiated THP-1 cells, 18 hrs
SMILES,EC50 (ABCA1 gene; [1]),IC50 (human LXRβ),IC50 (human LXRα),Emax (ABCA1 gene; [2]),"EC50 (ABCA1 gene; Homo sapiens, THP-1, 18 h)"
"CCCS(=O)(=O)c1cccc(Oc2cccc(-c3c(CC)nc4c(C(F)(F)F)cccn34)c2)c1 [Example 19, 2-ethyl-3-(3-(3-(propylsulfonyl)phenoxy)phenyl)-8-(trifluoromethyl)imidazo[1,2-a]pyridine]",408 nM,94 nM,975 nM,72%,
"CCc1nc2c(C(F)(F)F)cccn2c1-c1cccc(Oc2cccc(S(=O)(=O)C(C)C)c2)c1 [Example 20, 2-ethyl-3-(3-(3-(isopropylsulfonyl)phenoxy)phenyl)-8-(trifluoromethyl)imidazo[1,2-a]pyridine]",70 nM,14 nM,281 nM,101%,
"CCc1nc2c(C(F)(F)F)cccn2c1-c1cccc(Oc2cc(F)cc(S(C)(=O)=O)c2)c1 [Example 24, 2-ethyl-3-(3-(3-fluoro-5-(methylsulfonyl)phenoxy)phenyl)-8-(trifluoromethyl)imidazo[1,2-a]pyridine]",147 nM,51 nM,636 nM,76%,
"CCc1nc2c(C#N)cccn2c1-c1cccc(Oc2cccc(S(=O)(=O)N(C)Cc3ccc(OC)cc3)c2)c1 [Example 46, 3-[3-(8-cyano-2-ethylimidazo[1,2-a]pyridin-3-yl)phenoxy]-N-(4-methoxybenzyl)-N-methylbenzenesulfonamide]",359 nM,15.4 nM,64.9 nM,92%,
"CCc1nc2c(Cl)cccn2c1-c1cccc(Oc2cccc(S(=O)(=O)CC)c2)c1 [Example 64, 8-chloro-2-ethyl-3-{3-[3-(ethylsulfonyl)phenoxy]phenyl}imidazo[1,2-a]pyridine]",640 nM,15.1 nM,399 nM,79%,
"CCc1nc2c(Cl)cccn2c1-c1cccc(Oc2cccc(S(=O)(=O)C(C)C)c2)c1 [Example 65, 8-chloro-2-ethyl-3-{3-[3-(isopropylsulfonyl)phenoxy]phenyl}imidazo[1,2-a]pyridine]",1290 nM,16.9 nM,315 nM,113%,
"CC(C)c1nc2c(Cl)cccn2c1-c1cccc(Oc2cccc(S(=O)(=O)C(C)C)c2)c1 [Example 68, 8-chloro-2-isopropyl-3-{3-[3-(isopropylsulfonyl)phenoxy]phenyl}imidazo[1,2-a]pyridine]",1260 nM,7.1 nM,406 nM,93%,
"CCc1nc2c(C#N)cccn2c1-c1cccc(Oc2cccc(S(=O)(=O)CC)c2)c1 [Example 70, 2-ethyl-3-{3-[3-(ethylsulfonyl)phenoxy]phenyl}imidazo[1,2-a]pyridine-8-carbonitrile]",1260 nM,107 nM,4670 nM,95%,
"CS(=O)(=O)c1cccc(Oc2ccc(-c3c(-c4ccsc4)nc4c(C(F)(F)F)cccn34)cc2)c1 [Example 127, 3-{4-[3-(methylsulfonyl)phenoxy]phenyl}-2-thiophen-3-yl-8-(trifluoromethyl)imidazo[1,2-a]pyridine]",480 nM,113 nM,,25%,
"CS(=O)(=O)c1cccc(Oc2cccc(-c3c(CN4CCCCC4)nc4c(C(F)(F)F)cccn34)c2)c1 [Example 131, 3-{3-[3-(methylsulfonyl)phenoxy]phenyl}-2-(piperidin-1-ylmethyl)-8-(trifluoromethyl)imidazo[1,2-a]pyridine]",,,,100%,43 nM
"CS(=O)(=O)c1cccc(Oc2cccc(-c3c(CN4CCSC4)nc4c(C(F)(F)F)cccn34)c2)c1 [Example 133, 3-{3-[3-(methylsulfonyl)phenoxy]phenyl}-2-(1,3-thiazolidin-3-ylmethyl)-8-(trifluoromethyl)imidazo[1,2-a]pyridine]",,,,98%,10 nM

# More lines, main results first:
EC50 (ABCA1 gene; [1]),IC50 (human LXRβ),IC50 (human LXRα),SMILES,Emax (ABCA1 gene; [2]),"EC50 (ABCA1 gene; Homo sapiens, THP-1, 18 h)"
110 nM,14 nM,321 nM,"CCc1nc2c(C(F)(F)F)cccn2c1-c1cccc(Oc2cccc(S(=O)(=O)CC)c2)c1 [Example 18, 2-ethyl-3-(3-(3-(ethylsulfonyl)phenoxy)phenyl)-8-(trifluoromethyl)imidazo[1,2-a]pyridine]",118%,
771 nM,44 nM,520 nM,CCc1nc2c(C(F)(F)F)cccn2c1-c1cccc(Oc2cccc(S(=O)(=O)CCCO)c2)c1 [Example 21],111%,
925 nM,23 nM,411 nM,"CCc1nc2c(Cl)cccn2c1-c1cccc(Oc2cccc(S(=O)(=O)NC)c2)c1 [Example 48, 3-[3-(8-chloro-2-ethylimidazo[1,2-a]pyridin-3-yl)phenoxy]-N-methylbenzenesulfonamide]",94%,
1470 nM,79.6 nM,1920 nM,"CCc1nc2c(C#N)cccn2c1-c1cccc(Oc2cccc(S(=O)(=O)NC)c2)c1 [Example 51, 3-[3-(8-cyano-2-ethylimidazo[1,2-a]pyridin-3-yl)phenoxy]-N-methylbenzenesulfonamide]",93%,
1640 nM,19.8 nM,456 nM,"CC(C)c1nc2c(C(F)(F)F)cccn2c1-c1cccc(Oc2cccc(S(=O)(=O)CCCO)c2)c1 [Example 61, 3-[(3-{3-[2-isopropyl-8-(trifluoromethyl)imidazo[1,2-a]pyridin-3-yl]phenoxy}phenyl)sulfonyl]propan-1-ol]",60%,
304 nM,17.3 nM,642 nM,"CCc1nc2c(Cl)cccn2c1-c1cccc(Oc2cccc(S(C)(=O)=O)c2)c1 [Example 63, 8-chloro-2-ethyl-3-{3-[3-(methylsulfonyl)phenoxy]phenyl}imidazo[1,2-a]pyridine]",96%,
1620 nM,9.5 nM,405 nM,"CCS(=O)(=O)c1cccc(Oc2cccc(-c3c(C(C)C)nc4c(Cl)cccn34)c2)c1 [Example 67, 8-chloro-3-{3-[3-(ethylsulfonyl)phenoxy]phenyl}-2-isopropylimidazo[1,2-a]pyridine]",81%,

# Source: patent US20110112135A1, “Imidazo [1,2-A] Pyridine Compounds” (priority 2007, published 2011)
